In patent US8263606B2 (Xenon Pharmaceuticals Inc., priority 2008, dated 2012):

Experiments:
sodium channel = assay: Guanidine influx assay (14C-guanidine radiotracer flux, in vitro); type: cell-based, human or rat; conditions: guanidine influx assay using a known cell line that expresses a sodium channel
In short: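 Human or rat sodium channels stably expressed in endogenous or recombinant cells, plated ~100,000 cells/well for 20-24 h at 37 °C. Cells were treated with test agent in low-sodium choline HEPES saline plus aconitine and 14C-guanidine at ambient temperature, washed, and counted by scintillation; IC50 from 4-parameter logistic fit.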

CYP3A4 = CYP3A4 (Homo sapiens, UniProt P08684); assay: Cytochrome P450 (CYP450) Inhibition Assay, CYP3A4 (Vivid fluorescence, BOMCC substrate); conditions: human, P450 Baculosomes (recombinant CYP3A4), probe BOMCC (Vivid substrate)
Chain of CYP3A4 (P08684 whole entry): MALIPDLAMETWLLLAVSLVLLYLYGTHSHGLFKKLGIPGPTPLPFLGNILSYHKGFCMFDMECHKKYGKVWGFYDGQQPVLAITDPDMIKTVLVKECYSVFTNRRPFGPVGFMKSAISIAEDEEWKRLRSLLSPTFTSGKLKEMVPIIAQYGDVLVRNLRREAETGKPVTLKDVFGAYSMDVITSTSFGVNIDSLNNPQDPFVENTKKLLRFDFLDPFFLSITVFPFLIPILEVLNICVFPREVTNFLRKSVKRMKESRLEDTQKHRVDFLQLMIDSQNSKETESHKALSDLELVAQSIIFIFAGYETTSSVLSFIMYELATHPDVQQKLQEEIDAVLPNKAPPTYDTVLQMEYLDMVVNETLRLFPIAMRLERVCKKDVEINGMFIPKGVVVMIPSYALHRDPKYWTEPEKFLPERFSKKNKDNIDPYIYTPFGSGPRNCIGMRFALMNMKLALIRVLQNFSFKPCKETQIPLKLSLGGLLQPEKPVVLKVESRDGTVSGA

IC50 (sodium channel) [µM]	inhibition at 10 µM (CYP3A4) [%]	IC50 (sodium channel; activity level class) [µM]	Compound
0.1 to 1	> 50		O=C1N(C[C@H]2CCCO2)c2cccc(-c3cccc4c3sc3ccccc34)c2C12COc1cc3c(cc12)CCO3 (stereo partly drawn) [Example 16.2, 4′-dibenzo[b,d]thiophen-4-yl-1′-[(2R)-tetrahydrofuran-2-ylmethyl]-5,6-dihydrospiro[benzo[1,2-b:5,4-b′]difuran-3,3′-indol]-2′(1′H)-one]
	< 50	0.001 to 0.1	O=C1N(Cc2cccc([N+](=O)[O-])c2)c2ccccc2C12COc1cc3c(cc12)OCCO3 (stereo not drawn) [Example 7.10]
0.001 to 0.1	> 50		NC(=O)c1cccc(CN2C(=O)C3(COc4cc5c(cc43)OCCO5)c3ccccc32)n1 (stereo not drawn) [Example 42, 6-[(2′-oxo-2,3-dihydrospiro[furo[2,3-g][1,4]benzodioxine-8,3′-indol]-1′(2′H)-yl)methyl]pyridine-2-carboxamide]
0.1 to 1	> 50		COc1cc2c(cc1C)[C@]1(CO2)C(=O)N(CN2CCN(C)CC2)c2ccccc21 [Example 11.65, (3R)-6-methoxy-5-methyl-1′-[(4-methylpiperazin-1-yl)methyl]spiro[1-benzofuran-3,3′-indol]-2′(1′H)-one hydrogen chloride]
0.1 to 1	> 50		Cn1ccc2cc(-c3cccc4c3C3(COc5cc6c(cc53)CCO6)C(=O)N4C[C@H]3CCCO3)ccc21 (stereo partly drawn) [Example 16.4, 4′-(1-methyl-1H-indol-5-yl)-1′-[(2R)-tetrahydrofuran-2-ylmethyl]-5,6-dihydrospiro[benzo[1,2-b:5,4-b′]difuran-3,3′-indol]-2′(1′H)-one]
1 to 10	> 50		CC(C)N1CCOC(CN2C(=O)C3(COc4cc5c(cc43)CCO5)c3ccccc32)C1 (stereo not drawn) [Example 11.42, 1′-{[4-(1-methylethyl)morpholin-2-yl]methyl}-5,6-dihydrospiro[benzo[1,2-b:5,4-b′]difuran-3,3′-indol]-2′(1′H)-one]
	< 50	0.1 to 1	N#Cc1ccc2c(c1)OCC21C(=O)N(Cc2ccc3c(c2)OCCO3)c2ccccc21 (stereo not drawn) [Example 4.111, 1′-(2,3-dihydro-1,4-benzodioxin-6-ylmethyl)-2′-oxo-1′,2′-dihydrospiro[1-benzofuran-3,3′-indole]-6-carbonitrile]
1 to 10	< 50		COc1ccccc1NC(=O)c1ccc(CN2C(=O)C3(COc4cc5c(cc43)CCO5)c3ccccc32)cc1 (stereo not drawn) [Example 12.25, N-(2-methoxyphenyl)-4-[(2′-oxo-5,6-dihydrospiro[benzo[1,2-b:5,4-b′]difuran-3,3′-indol]-1′(2′H)-yl)methyl]benzamide]
1 to 10	< 50		O=C1N(C[C@H]2CCCO2)c2cccc(CN3CCCC3)c2C12COc1cc3c(cc12)CCO3 (stereo partly drawn) [Example 11.38, 4′-(pyrrolidin-1-ylmethyl)-1′-[(2R)-tetrahydrofuran-2-ylmethyl]-5,6-dihydrospiro[benzo[1,2-b:5,4-b′]difuran-3,3′-indol]-2′(1′H)-one]
	> 50	0.1 to 1	Cn1cc(CN2C(=O)C3(COc4cc5c(cc43)CCO5)c3ccccc32)c(C(F)(F)F)n1 (stereo not drawn) [Example 4.9, 1′-{[1-methyl-3-(trifluoromethyl)-1H-pyrazol-4-yl]methyl}-5,6-dihydrospiro[benzo[1,2-b:5,4-b′]difuran-3,3′-indol]-2′(1′H)-one]
0.1 to 1	> 50		CNC(=O)c1ccc(CN2C(=O)C3(COc4cc5c(cc43)CCO5)c3ccccc32)cc1 (stereo not drawn) [Example 12.28, N-methyl-4-[(2′-oxo-5,6-dihydrospiro[benzo[1,2-b:5,4-b′]difuran-3,3′-indol]-1′(2′H)-yl)methyl]benzamide]
1 to 10	> 50		O=C(Nc1ccccc1C(F)(F)F)c1ccc(CN2C(=O)C3(COc4cc5c(cc43)CCO5)c3ccccc32)cc1 (stereo not drawn) [Example 12.26, 4-[(2′-oxo-5,6-dihydrospiro[benzo[1,2-b:5,4-b′]difuran-3,3′-indol]-1′(2′H)-yl)methyl]-N-[2-(trifluoromethyl)phenyl]benzamide]
0.001 to 0.1	> 50		O=C1N(Cc2cnc(Cl)s2)c2ccccc2C12COc1cc3c(cc12)OCO3 (stereo not drawn) [Example 11, 1′-[(2-chloro-1,3-thiazol-5-yl)methyl]spiro[furo[2,3-f][1,3]benzodioxole-7,3′-indol]-2′(1′H)-one]
0.001 to 0.1	> 50		CN(C)C(=O)c1ccc(CN2C(=O)C3(COc4cc5c(cc43)CCO5)c3ccccc32)o1 (stereo not drawn) [Example 13.1, N,N-dimethyl-5-[(2′-oxo-5,6-dihydrospiro[benzo[1,2-b:5,4-b′]difuran-3,3′-indol]-1′(2′H)-yl)methyl]furan-2-carboxamide]
1 to 10	> 50		CC(C)N1CCC(CN2C(=O)C3(COc4cc5c(cc43)CCO5)c3ccccc32)CC1 (stereo not drawn) [Example 11.6, 1′-{[1-(1-methylethyl)piperidin-4-yl]methyl}-5,6-dihydrospiro[benzo[1,2-b:5,4-b′]difuran-3,3′-indol]-2′(1′H)-one]
1 to 10	> 50		O=C(c1ccc(CN2C(=O)C3(COc4cc5c(cc43)CCO5)c3ccccc32)cc1)N1CCOCC1 (stereo not drawn) [Example 12.33, 1′-[4-(morpholin-4-ylcarbonyl)benzyl]-5,6-dihydrospiro[benzo[1,2-b:5,4-b′]difuran-3,3′-indol]-2′(1′H)-one]
	> 50	0.001 to 0.1	O=C1N(Cc2ccc(Br)o2)c2ccccc2C12COc1cc3c(cc12)CCO3 (stereo not drawn) [Example 4.18, 1′-[(5-bromofuran-2-yl)methyl]-5,6-dihydrospiro[benzo[1,2-b:5,4-b′]difuran-3,3′-indol]-2′(1′H)-one]
	> 50	1 to 10	O=C1N(Cc2ccc(C(F)(F)F)o2)c2ccccc2C12CCOc1cc3c(cc12)CCO3 (stereo not drawn) [Example 4.70, 1-{[5-(trifluoromethyl)furan-2-yl]methyl}-2,3,6,7-tetrahydrospiro[furo[3,2-g]chromene-5,3′-indol]-2′(1′H)-one]
0.1 to 1	> 50		O=C1N(C[C@H]2CCCO2)c2cccc(-c3cc(C(F)(F)F)cc(C(F)(F)F)c3)c2C12COc1cc3c(cc12)CCO3 (stereo partly drawn) [Example 16.5, 4′-[3,5-bis(trifluoromethyl)phenyl]-1′-[(2R)-tetrahydrofuran-2-ylmethyl]-5,6-dihydrospiro[benzo[1,2-b:5,4-b′]difuran-3,3′-indol]-2′(1′H)-one]
1 to 10	< 50		O=C1N(CC2CCOCC2)c2ccccc2C12COc1cc(F)c(F)cc12 (stereo not drawn) [Example 9.65, 5,6-difluoro-1′-(tetrahydro-2H-pyran-4-ylmethyl)spiro[1-benzofuran-3,3′-indol]-2′(1′H)-one]
	> 50	0.001 to 0.1	O=C1N(Cc2cncc(F)c2)c2ccccc2C12COc1cc3c(cc12)OCCO3 (stereo not drawn) [Example 8.18, 1′-[(5-fluoropyridin-3-yl)methyl]-2,3-dihydrospiro[furo[2,3-g][1,4]benzodioxine-8,3′-indol]-2′(1′H)-one]
	> 50	1 to 10	N#Cc1cc2c(cc1F)OCC21C(=O)N(Cc2ccccc2C(F)(F)F)c2ccccc21 (stereo not drawn) [Example 9.50, 6-fluoro-2′-oxo-1′-[2-(trifluoromethyl)benzyl]-1′,2′-dihydrospiro[1-benzofuran-3,3′-indole]-5-carbonitrile]
	> 50	0.1 to 1	CCn1cncc1CN1C(=O)C2(COc3cc4c(cc32)CCO4)c2ccccc21 (stereo not drawn) [Example 4.21, 1′-[(1-ethyl-1H-imidazol-5-yl)methyl]-5,6-dihydrospiro[benzo[1,2-b:5,4-b′]difuran-3,3′-indol]-2′(1′H)-one]
	< 50	1 to 10	O=C1Nc2ccccc2C12CCOc1cc3c(cc12)CCO3 (stereo not drawn) [Example 3.24, 2,3,6,7-tetrahydrospiro[furo[3,2-g]chromene-5,3′-indol]-2′(1′H)-one]
	< 50	0.001 to 0.1	O=C1N(Cc2ncccc2C(F)(F)F)c2ccccc2C12COc1cc3c(c(F)c12)OCCO3 (stereo not drawn) [Example 5.26, 9-fluoro-1′-{[3-(trifluoromethyl)pyridin-2-yl]methyl}-2,3-dihydrospiro[furo[2,3-g][1,4]benzodioxine-8,3′-indol]-2′(1′H)-one]
0.1 to 1	< 50		N#Cc1cccc2c1C1(COc3cc4c(cc31)CCO4)C(=O)N2C[C@H]1CCCO1 (stereo partly drawn) [Example 11.35, 2′-oxo-1′-[(2R)-tetrahydrofuran-2-ylmethyl]-1′,2′,5,6-tetrahydrospiro[benzo[1,2-b:5,4-b′]difuran-3,3′-indole]-4′-carbonitrile]
	> 50	0.001 to 0.1	O=C1N(Cc2cc(Br)cs2)c2ccccc2C12COc1cc3c(cc12)OCO3 (stereo not drawn) [Example 1.7, 1′-[(4-bromo-2-thienyl)methyl]spiro[furo[2,3-f][1,3]benzodioxole-7,3′-indol]-2′(1′H)-one]
	> 50	0.001 to 0.1	O=C1N(Cc2ccc(F)cc2)c2ccccc2C12COc1cc3c(cc12)OCCO3 (stereo not drawn) [Example 7.21, 1′-(4-fluorobenzyl)-2,3-dihydrospiro[furo[2,3-g][1,4]benzodioxine-8,3′-indol]-2′(1′H)-one]
0.1 to 1	> 50		CS(=O)(=O)Nc1cccnc1CN1C(=O)C2(COc3cc4c(cc32)OCCO4)c2ccccc21 (stereo not drawn) [Example 11.98, N-{2-[(2′-oxo-2,3-dihydrospiro[furo[2,3-g][1,4]benzodioxine-8,3′-indol]-1′(2′H)-yl)methyl]pyridine-3-yl}methanesulfonamide]
	> 50	0.1 to 1	COc1cncc(N2C(=O)C3(COc4cc5c(cc43)OCO5)c3ccccc32)c1 (stereo not drawn) [Example 1.17, 1′-(5-methoxypyridin-3-yl)spiro[furo[2,3-f][1,3]benzodioxole-7,3′-indol]-2′(1′H)-one]
